Data as given in patent US11807625B2, “Capsid inhibitors for the prevention of HIV” (Gilead Sciences, Inc., priority 2019, dated 2023).
Read-outs that look alike come from different tables or passages of the source.

Test: PK of compound of Formula (Ia) after single subcutaneous dose of solution formulations in Wistar Han rats
Type: in vivo
Conditions: male, Wistar Han, rat, plasma, sc, 50 mg/kg, mean ± SD
Protocol: Formulations containing the compound of Formula (Ia), or a pharmaceutically acceptable salt thereof, were prepared as solutions and optionally administered subcutaneously or intramuscularly to rats, rabbits, and/or dogs.
(§1) A solution of about 400 mg/mL of the compound of Formula (Ia) having 19.14 w/w % water, 40.66 w/w % PEG 300, 35.20 w/w % of a sodium salt of a compound of Formula (Ia), and 5.00% ethanol was prepared. The solution was administered subcutaneously to male Wistar Han rats at a dose level of about 50 mg/kg and dose volume of 0.125 mL/kg and the pharmacokinetic (PK) profile was determined.
as §1, with “500” for “400”, “16.64” for “19.14”, “35.36” for “40.66”, “43.00” for “35.20”, “0.1” for “0.125”
(§2) A solution of about 400 mg/mL of the compound of Formula (Ia) having 17.00 w/w % water, 36.40 w/w % PEG 300, 35.20 w/w % of a sodium salt of a compound of Formula (Ia), 5.00 w/w % ethanol, and 6.40 w/w % poloxamer 188 was prepared. The solution was administered subcutaneously to male beagle dogs at a dose level of about 12 mg/kg and male Wistar Han rats at a dose level of about 50 mg/kg. The pharmacokinetic profiles were determined, and the results for dogs are summarized in Table and Table, while the results for rats are summarized in Table and Table below.
as §2, with “500” for “400”, “14.06” for “17.00”, “30.12” for “36.40”
A solution of about 300 mg/mL of the compound of Formula (Ia) having 23.33 w/w % water, 48.99 w/w % PEG 300, 26.47 w/w % of a sodium salt of a compound of Formula (Ia), and 1.21 w/w % poloxamer 188 was prepared. The solution was administered subcutaneously to male beagle dogs at a dose level of about 6 mg/kg and male Wistar Han rats at a dose level of about 50 mg/kg. The pharmacokinetic profiles were determined, and the results for dogs are summarized in Table and Table, while the results for rats are summarized in Table and Table below.
as §2, with “18.80” for “17.00”, “40.25” for “36.40”, “34.38” for “35.20”, “1.57” for “6.40”
as §2, with “500” for “400”, “16.29” for “17.00”, “34.88” for “36.40”, “41.92” for “35.20”, “1.91” for “6.40”
A solution of about 400 mg/mL of the compound of Formula (Ia) having 20.90 w/w % water, 44.72 w/w % PEG 300, and 34.38 w/w % of a sodium salt of a compound of Formula (Ia) was prepared. […]

- AUC(0-t) (male Wistar Han rats, single SC 50 mg/kg, 400 mg/mL solution Y (water, PEG 300), n = 4, read-out: AUC0-336 h): 31.6 ± 10.9 µM·h
- AUC(0-t) (male Wistar Han rats, single SC 50 mg/kg, 400 mg/mL solution Y (water, PEG 300), n = 4, read-out: AUC0-672 h): 74.9 ± 33.7 µM·h
- AUC(0-t) (male Wistar Han rats, single SC 50 mg/kg, 400 mg/mL solution Y (water, PEG 300), n = 4, read-out: AUC0-1008 h): 128 ± 64 µM·h
- AUC(0-t) (male Wistar Han rats, single SC 50 mg/kg, 400 mg/mL solution Y (water, PEG 300), n = 4, read-out: AUC0-1344 h): 182 ± 100 µM·h
- AUC(0-t) (male Wistar Han rats, single SC 50 mg/kg, 400 mg/mL solution Y (water, PEG 300), n = 4, read-out: AUC0-1680 h): 230 ± 132 µM·h
- AUC(0-t) (male Wistar Han rats, single SC 50 mg/kg, 400 mg/mL solution Y (water, PEG 300), n = 4, read-out: AUC0-2352 h): 312 ± 181 µM·h
- AUC(0-t) (male Wistar Han rats, single SC 50 mg/kg, 400 mg/mL solution Y (water, PEG 300), n = 4, read-out: AUC0-3024 h): 389 ± 229 µM·h
- AUC(0-t) (male Wistar Han rats, single SC 50 mg/kg, 400 mg/mL solution Y (water, PEG 300), n = 4, read-out: AUC0-3696 h): 454 ± 255 µM·h
- AUC(0-t) (male Wistar Han rats, single SC 50 mg/kg, 400 mg/mL solution Z (3.13% poloxamer 188), n = 4, read-out: AUC0-24 h): 2.37 ± 1.6 µM·h
- AUC(0-t) (male Wistar Han rats, single SC 50 mg/kg, 400 mg/mL solution Z (3.13% poloxamer 188), n = 4, read-out: AUC0-168 h): 23.9 ± 12.4 µM·h
- AUC(0-t) (male Wistar Han rats, single SC 50 mg/kg, 400 mg/mL solution Z (3.13% poloxamer 188), n = 4, read-out: AUC0-336 h): 49.4 ± 25.4 µM·h
- AUC(0-t) (male Wistar Han rats, single SC 50 mg/kg, 400 mg/mL solution Z (3.13% poloxamer 188), n = 4, read-out: AUC0-672 h): 106 ± 49 µM·h
- AUC(0-t) (male Wistar Han rats, single SC 50 mg/kg, 400 mg/mL solution Z (3.13% poloxamer 188), n = 4, read-out: AUC0-1008 h): 163 ± 68 µM·h
- AUC(0-t) (male Wistar Han rats, single SC 50 mg/kg, 400 mg/mL solution Z (3.13% poloxamer 188), n = 4, read-out: AUC0-1344 h): 214 ± 85 µM·h
- AUC(0-t) (male Wistar Han rats, single SC 50 mg/kg, 400 mg/mL solution Z (3.13% poloxamer 188), n = 4, read-out: AUC0-1680 h): 259 ± 99 µM·h
- AUC(0-t) (male Wistar Han rats, single SC 50 mg/kg, 400 mg/mL solution Z (3.13% poloxamer 188), n = 4, read-out: AUC0-2352 h): 344 ± 117 µM·h
- AUC(0-t) (male Wistar Han rats, single SC 50 mg/kg, 400 mg/mL solution Z (3.13% poloxamer 188), n = 4, read-out: AUC0-3024 h): 435 ± 129 µM·h
- AUC(0-t) (male Wistar Han rats, single SC 50 mg/kg, 400 mg/mL solution Z (3.13% poloxamer 188), n = 4, read-out: AUC0-3696 h): 544 ± 156 µM·h
- AUC(0-t) (male Wistar Han rats, single SC 50 mg/kg, 500 mg/mL solution X (5.00% ethanol, 1.91% poloxamer 188), n = 3, read-out: AUC0-24 h): 2.82 ± 0.53 µM·h
- AUC(0-t) (male Wistar Han rats, single SC 50 mg/kg, 500 mg/mL solution X (5.00% ethanol, 1.91% poloxamer 188), n = 3, read-out: AUC0-168 h): 30.1 ± 5.1 µM·h
- AUC(0-t) (male Wistar Han rats, single SC 50 mg/kg, 500 mg/mL solution X (5.00% ethanol, 1.91% poloxamer 188), n = 3, read-out: AUC0-336 h): 64.5 ± 11.4 µM·h
- AUC(0-t) (male Wistar Han rats, single SC 50 mg/kg, 500 mg/mL solution X (5.00% ethanol, 1.91% poloxamer 188), n = 3, read-out: AUC0-672 h): 152 ± 23 µM·h
- AUC(0-t) (male Wistar Han rats, single SC 50 mg/kg, 500 mg/mL solution X (5.00% ethanol, 1.91% poloxamer 188), n = 3, read-out: AUC0-1008 h): 244 ± 29 µM·h
- AUC(0-t) (male Wistar Han rats, single SC 50 mg/kg, 500 mg/mL solution X (5.00% ethanol, 1.91% poloxamer 188), n = 3, read-out: AUC0-1344 h): 329 ± 35 µM·h
- AUC(0-t) (male Wistar Han rats, single SC 50 mg/kg, 500 mg/mL solution X (5.00% ethanol, 1.91% poloxamer 188), n = 3, read-out: AUC0-1680 h): 416 ± 47 µM·h
- AUC(0-t) (male Wistar Han rats, single SC 50 mg/kg, 500 mg/mL solution X (5.00% ethanol, 1.91% poloxamer 188), n = 3, read-out: AUC0-2352 h): 549 ± 64 µM·h
- AUC(0-t) (male Wistar Han rats, single SC 50 mg/kg, 500 mg/mL solution X (5.00% ethanol, 1.91% poloxamer 188), n = 3, read-out: AUC0-3024 h): 659 ± 80 µM·h
- AUC(0-t) (male Wistar Han rats, single SC 50 mg/kg, 500 mg/mL solution X (5.00% ethanol, 1.91% poloxamer 188), n = 3, read-out: AUC0-3696 h): 761 ± 84 µM·h
- AUC(0-t) (male Wistar Han rats, single SC 50 mg/kg, 500 mg/mL solution X (5.00% ethanol, 1.91% poloxamer 188), n = 3, read-out: AUC0-4704 h): 806 ± 83 µM·h
- Cmax (n = 3 rats, SC 50 mg/kg, solution R, 400 mg/mL): 370 ± 65 nM
- AUC(0-t) (n = 3 rats, SC 50 mg/kg, solution R, 400 mg/mL, read-out: AUC0-24h): 3.02 ± 0.65 µM·h
- AUC(0-t) (n = 3 rats, SC 50 mg/kg, solution R, 400 mg/mL, read-out: AUC0-168h): 25.2 ± 5.3 µM·h
- AUC(0-t) (n = 3 rats, SC 50 mg/kg, solution R, 400 mg/mL, read-out: AUC0-336h): 60.6 ± 8.3 µM·h
- AUC(0-t) (n = 3 rats, SC 50 mg/kg, solution R, 400 mg/mL, read-out: AUC0-672h): 170 ± 5.4 µM·h
- AUC(0-t) (n = 3 rats, SC 50 mg/kg, solution R, 400 mg/mL, read-out: AUC0-1008h): 287 ± 32 µM·h
Compound: CC(C)(C#Cc1ccc(-c2ccc(Cl)c3c(NS(C)(=O)=O)nn(CC(F)(F)F)c23)c([C@H](Cc2cc(F)cc(F)c2)NC(=O)Cn2nc(C(F)(F)F)c3c2C(F)(F)[C@@H]2C[C@H]32)n1)S(C)(=O)=O [compound of Formula (Ia)]
